The results in this text go back to patent publication US11161852B1 (Halia Therapeutics, Inc., priority 2020, dated 2021).

SMILES strings stand for the structures. Some results are limits rather than exact numbers.

The target in this experiment is full-length recombinant human NEK7 (Homo sapiens (Human), UniProt Q8TDX7). As to the kind of experiment: NEK7 Enzymatic Assay ([33P]-ATP, casein substrate). It counts as biochemical. Here is the method: Casein substrate (from bovine milk, hydrolyzed and partially dephosphorylated mixture of α, β and a caseins, obtained from Sigma Aldrich, catalogue #C4765, diluted in distilled water to a final concentration of 1 mg/mL) and full-length recombinant human NEK7 (expressed by baculovirus in Sf9 insect cells using a N-terminal GST tag, obtained from SignalChem, catalogue #N09-10G, 0.1 μg/μL) were mixed in assay buffer (20 mM Hepes pH 7.5, 10 mM MgCl2, 1 mM EGTA, 0.02% Brij35, 0.02 mg/ml BSA, 0.1 mM Na3VO4, 2 mM DTT, 1% DMSO). Compounds of interest (serial 3-fold dilution in DMSO from 10 μM to 0.5 nM) or vehicle (1% DMSO) were dispensed into the kinase reaction mixture by Acoustic technology (Echo550; nanoliter range). After incubation at room temperature for 20 minutes, the kinase reaction was initiated by addition of [^33P]-ATP (specific activity […]) and the mixture was incubated at room temperature for 2 hours. The reaction was then stopped by spotting the reaction mixture on strips of phosphocellulose P81 paper. Following washing, the radioactivity of the P81 paper was measured and kinase activity data were expressed as the percent remaining kinase activity in test samples compared to vehicle reactions. IC50 values and curve fits were obtained using Prism (GraphPad Software).
full-length recombinant human NEK7, sequence (Q8TDX7 whole entry): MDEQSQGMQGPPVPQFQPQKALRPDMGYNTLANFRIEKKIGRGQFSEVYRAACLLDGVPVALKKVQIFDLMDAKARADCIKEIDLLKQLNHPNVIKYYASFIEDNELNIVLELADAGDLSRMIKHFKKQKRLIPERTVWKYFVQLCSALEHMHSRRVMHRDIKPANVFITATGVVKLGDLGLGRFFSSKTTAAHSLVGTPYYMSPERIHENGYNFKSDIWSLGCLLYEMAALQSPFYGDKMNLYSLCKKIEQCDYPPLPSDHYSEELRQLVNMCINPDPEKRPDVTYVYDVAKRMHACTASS
For the molecule `Nc1ncnc2c1c(-c1ccc(NC(=O)Nc3cc(C4(C(F)(F)F)CC4)no3)c(F)c1)cn2CCO` [Example 52, 1-(4-(4-amino-7-(2-hydroxyethyl)-7H-pyrrolo[2,3-d]pyrimidin-5-yl)-2-fluorophenyl)-3-(3-(1-(trifluoromethyl)cyclopropyl)isoxazol-5-yl)urea], the IC50 is under 150 nM.
In the case of `CC1(c2cc(NC(=O)Nc3ccc(-c4cn(C5CC5)c5ncnc(N)c45)cc3F)on2)COC1` [Example 27, 1-(4-(4-amino-7-cyclopropyl-7H-pyrrolo[2,3-d]pyrimidin-5-yl)-2-fluorophenyl)-3-(3-(3-methyloxetan-3-yl)isoxazol-5-yl)urea], the IC50 is under 150 nM.
The result for `Nc1nccc2c1c(-c1ccc(NC(=O)Nc3cc(C4(C(F)(F)F)CC4)no3)c(F)c1)cn2C1CC1` [Example 62, 1-(4-(4-amino-1-cyclopropyl-1H-pyrrolo[3,2-c]pyridin-3-yl)-2-fluorophenyl)-3-(3-(1-(trifluoromethyl)cyclopropyl)isoxazol-5-yl)urea] reads over 1500 nM; that for `Nc1ncnc2c1c(-c1cc(F)c(NC(=O)Nc3cc(C4(C(F)(F)F)CC4)no3)cc1F)cn2C1CC1` [Example 42, 1-(4-(4-amino-7-cyclopropyl-7H-pyrrolo[2,3-d]pyrimidin-5-yl)-2,5-difluorophenyl)-3-(3-(1-(trifluoromethyl)cyclopropyl)isoxazol-5-yl)urea], 501 to 1500 nM; that for `Nc1ncnc2c1c(-c1ccc(NC(=O)Nc3cc(C4(C(F)(F)F)CC4)on3)c(F)c1)cn2CCO` [Example 61, 1-(4-(4-amino-7-(2-hydroxyethyl)-7H-pyrrolo[2,3-d]pyrimidin-5-yl)-2-fluorophenyl)-3-(5-(1-(trifluoromethyl)cyclopropyl)isoxazol-3-yl)urea], under 150 nM.
As for `CC(C)(C)c1nsc(NC(=O)Nc2ccc(-c3cn(C4CC4)c4ncnc(N)c34)cc2F)n1` [Example 21, 1-(4-(4-amino-7-cyclopropyl-7H-pyrrolo[2,3-d]pyrimidin-5-yl)-2-fluorophenyl)-3-(3-(tert-butyl)-1,2,4-thiadiazol-5-yl)urea], the figure is over 1500 nM; as for `CCC(CC)c1cc(NC(=O)Nc2ccc(-c3cn(C4CC4)c4ncnc(N)c34)cc2F)on1` [Example 31, 1-(4-(4-amino-7-cyclopropyl-7H-pyrrolo[2,3-d]pyrimidin-5-yl)-2-fluorophenyl)-3-(3-(pentan-3-yl)isoxazol-5-yl)urea], 301 to 500 nM.
Turning to `Nc1ncnc2c1c(-c1cnc(NC(=O)Nc3cc(C4(C(F)(F)F)CC4)no3)nc1)cn2C1CC1` [Example 48, 1-(5-(4-amino-7-cyclopropyl-7H-pyrrolo[2,3-d]pyrimidin-5-yl)pyrimidin-2-yl)-3-(3-(1-(trifluoromethyl)cyclopropyl)isoxazol-5-yl)urea], the IC50 was over 1500 nM.
On to `Nc1ncnc2c1c(-c1cc(F)c(NC(=O)Nc3cc(C4(C(F)(F)F)CC4)on3)c(F)c1)cn2C1CC1` [Example 60, 1-(4-(4-amino-7-cyclopropyl-7H-pyrrolo[2,3-d]pyrimidin-5-yl)-2,6-difluorophenyl)-3-(5-(1-(trifluoromethyl)cyclopropyl)isoxazol-3-yl)urea], for which the IC50 is over 1500 nM.
The result for `Cc1cc(NC(=O)Nc2ccc(-c3cn(C4CC4)c4ncnc(N)c34)cc2F)on1` [Example 7, 1-(4-(4-amino-7-cyclopropyl-7H-pyrrolo[2,3-d]pyrimidin-5-yl)-2-fluorophenyl)-3-(3-methylisoxazol-5-yl)urea] reads 501 to 1500 nM.
Take `Nc1ncnc2c1c(-c1ccc(NC(=O)Nc3cc(CO)no3)c(F)c1)cn2C1CC1` [Example 36, 1-(4-(4-amino-7-cyclopropyl-7H-pyrrolo[2,3-d]pyrimidin-5-yl)-2-fluorophenyl)-3-(3-(hydroxymethyl)isoxazol-5-yl)urea]: the IC50 was 501 to 1500 nM.
As for `CC(C)(C)c1cc(NC(=O)Nc2ccc(-c3cn(C4COC4)c4ncnc(N)c34)cc2)on1` [Example 1, 1-(4-(4-amino-7-(oxetan-3-yl)-7H-pyrrolo[2,3-d]pyrimidin-5-yl)phenyl)-3-(3-(tert-butyl)isoxazol-5-yl)urea], the figure is 151 to 300 nM.
